Experimental data from ChEMBL document CHEMBL5715937, “In vitro activity of Bcr-Abl inhibitors AMN107 and BMS-354825 against clinically relevant imatinib-resistant Abl kinase domain mutants” (Cancer Res, 2005).
Activity calls are given as the source filed them. No cut-off for these calls is given here.

Key:
[1] = cells; settings: Mus musculus, BaF3, 3 h
[2] = cells; settings: Mus musculus, BaF3, 3 h; remark: listed apart in the source
[3] = cells; settings: Mus musculus, BaF3, 3 h; remark: listed apart in the source
[4] = Inhibition of BCR-ABL M244V mutant (unknown origin) expressed in mouse BaF3 cells assessed as inhibition of cell growth incubated for 72 hrs by […] CellTiter96 viability analysis; settings: for IC50: BaF3, 72 h
[5] = cells; settings: Mus musculus, BaF3, 3 h; remark: listed apart in the source
[6] = cells; settings: Mus musculus, BaF3, 3 h; remark: listed apart in the source
[7] = cells; settings: Mus musculus, BaF3, 3 h; remark: listed apart in the source
[8] = cells; settings: Mus musculus, BaF3, 3 h; remark: listed apart in the source
[9] = cells; settings: Mus musculus, BaF3, 3 h; remark: listed apart in the source
[10] = Inhibition of BCR-ABL Y253H mutant (unknown origin) expressed in mouse BaF3 cells assessed as inhibition of cell growth incubated for 72 hrs by […] CellTiter96 viability analysis; settings: for IC50: BaF3, 72 h
[11] = Inhibition of BCR-ABL E255K mutant (unknown origin) expressed in mouse BaF3 cells assessed as inhibition of cell growth incubated for 72 hrs by […] CellTiter96 viability analysis; settings: for IC50: BaF3, 72 h
[12] = Inhibition of BCR-ABL F317L mutant (unknown origin) expressed in mouse BaF3 cells assessed as inhibition of cell growth incubated for 72 hrs by […] CellTiter96 viability analysis; settings: for IC50: BaF3, 72 h
[13] = Inhibition of BCR-ABL E255V mutant (unknown origin) expressed in mouse BaF3 cells assessed as inhibition of cell growth incubated for 72 hrs by […] CellTiter96 viability analysis; settings: for IC50: BaF3, 72 h
[14] = Inhibition of BCR-ABL F359V mutant (unknown origin) expressed in mouse BaF3 cells assessed as inhibition of cell growth incubated for 72 hrs by […] CellTiter96 viability analysis; settings: for IC50: BaF3, 72 h
[15] = Inhibition of BCR-ABL M351T mutant (unknown origin) expressed in mouse BaF3 cells assessed as inhibition of cell growth incubated for 72 hrs by […] CellTiter96 viability analysis; settings: for IC50: BaF3, 72 h
[16] = cells; settings: Mus musculus, BaF3, 3 h; remark: listed apart in the source
[17] = Inhibition of BCR-ABL L387M mutant (unknown origin) expressed in mouse BaF3 cells assessed as inhibition of cell growth incubated for 72 hrs by […] CellTiter96 viability analysis; settings: for IC50: BaF3, 72 h
[18] = cells; settings: Mus musculus, BaF3, 3 h; remark: listed apart in the source
[19] = Inhibition of BCR-ABL H396R mutant (unknown origin) expressed in mouse BaF3 cells assessed as inhibition of cell growth incubated for 72 hrs by […] CellTiter96 viability analysis; settings: for IC50: BaF3, 72 h
[20] = cells; settings: Mus musculus, BaF3, 3 h; remark: listed apart in the source
[21] = Inhibition of BCR-ABL G250E mutant (unknown origin) expressed in mouse BaF3 cells assessed as inhibition of cell growth incubated for 72 hrs by […] CellTiter96 viability analysis; settings: for IC50: BaF3, 72 h
[22] = Inhibition of BCR-ABL Y253F mutant (unknown origin) expressed in mouse BaF3 cells assessed as inhibition of cell growth incubated for 72 hrs by […] CellTiter96 viability analysis; settings: for IC50: BaF3, 72 h
[23] = cells; settings: Mus musculus, BaF3, 72 h
[24] = Cytotoxicity against mouse BaF3 cells assessed as reduction in cell proliferation incubated for 72 hrs by […] CellTiter96 viability analysis; assay type: toxicity
[25] = cells; settings: Mus musculus, BaF3, 3 h; remark: listed apart in the source
[26] = Inhibition of BCR-ABL H396P mutant (unknown origin) expressed in mouse BaF3 cells assessed as inhibition of cell growth incubated for 72 hrs by […] CellTiter96 viability analysis; settings: for IC50: BaF3, 72 h
[27] = Inhibition of BCR-ABL F311L mutant (unknown origin) expressed in mouse BaF3 cells assessed as inhibition of cell growth incubated for 72 hrs by […] CellTiter96 viability analysis; settings: for IC50: BaF3, 72 h
[28] = Inhibition of BCR-ABL Q252H mutant (unknown origin) expressed in mouse BaF3 cells assessed as inhibition of cell growth incubated for 72 hrs by […] CellTiter96 viability analysis; settings: for IC50: BaF3, 72 h
[29] = Inhibition of BCR-ABL V379l mutant (unknown origin) expressed in mouse BaF3 cells assessed as inhibition of cell growth incubated for 72 hrs by […] CellTiter96 viability analysis; settings: for IC50: BaF3, 72 h
[30] = test system: BaF3; experiment: Induction of apoptosis in mouse BaF3 cells expressing Bcr-Abl T315I mutant at 300 to 1500 nM incubated for 72 hrs by Annexin V-phycoerythrin and 7-amino-actinomycin D staining based PCA instrument analysis relative to control; assay type: functional, cell-based; settings: dose 300-1500 nM
[31] = Inhibition of BCR-ABL H396P mutant (unknown origin) expressed in mouse BaF3 cells assessed as inhibition of tyrosine phosphorylation incubated for 3 hrs by immunoblotting analysis; assay type: cell-based; settings: BaF3, 3 h
[32] = Inhibition of BCR-ABL F311L mutant (unknown origin) expressed in mouse BaF3 cells assessed as inhibition of tyrosine phosphorylation incubated for 3 hrs by immunoblotting analysis; assay type: cell-based; settings: BaF3, 3 h
[33] = Inhibition of BCR-ABL V379l mutant (unknown origin) expressed in mouse BaF3 cells assessed as inhibition of tyrosine phosphorylation incubated for 3 hrs by immunoblotting analysis; assay type: cell-based; settings: BaF3, 3 h
[34] = Inhibition of BCR-ABL L387M mutant (unknown origin) expressed in mouse BaF3 cells assessed as inhibition of tyrosine phosphorylation incubated for 3 hrs by immunoblotting analysis; assay type: cell-based; settings: BaF3, 3 h
[35] = Inhibition of BCR-ABL phosphorylation in mouse BaF3 cells incubated for 3 hrs by immunoblotting analysis; assay type: functional, cell-based
[36] = BaF3, time 72 hrs, condition chronic myelogenous leukemia

Cc1nc(Nc2ncc(C(=O)Nc3c(C)cccc3Cl)s2)cc(N2CCN(CCO)CC2)n1 [DASATINIB ANHYDROUS]
IC50 [1]: < 0.01 µM
IC50 [2]: 0.01 µM
IC50 [3]: 0.01 µM
IC50 [4]: 0.0013 µM
IC90 [4, 36]: 0.0018 µM
IC50 [5]: < 0.01 µM
IC50 [6]: < 0.01 µM
IC50 [7]: 0.01 µM
IC50 [8]: < 0.01 µM
IC50 [9]: < 0.01 µM
IC50 [10]: 0.0013 µM
IC90 [10, 36]: 0.003 µM
IC50 [11]: 0.0056 µM
IC90 [11, 36]: 0.0128 µM
IC50 [12]: 0.0074 µM
IC90 [12, 36]: 0.015 µM
IC50 [13]: 0.011 µM
IC90 [13, 36]: 0.027 µM
IC50 [14]: 0.0022 µM
IC90 [14, 36]: 0.0048 µM
IC50 [15]: 0.0011 µM
IC90 [15, 36]: 0.003 µM
IC50 [16]: > 1 µM
IC50 [17]: 0.002 µM
IC90 [17, 36]: 0.004 µM
IC50 [18]: < 0.01 µM
IC50 [19]: 0.0013 µM
IC90 [19, 36]: 0.0027 µM
IC50 [20]: < 0.01 µM
IC50 [21]: 0.0018 µM
IC90 [21, 36]: 0.003 µM
IC50 [22]: 0.0014 µM
IC90 [22, 36]: 0.003 µM
IC50 [23]: > 0.2 µM
IC50 at 72 h [24]: > 0.2 µM
IC50 [25]: < 0.01 µM
IC50 [26]: 0.0006 µM
IC90 [26, 36]: 0.0012 µM
IC50 [27]: 0.0013 µM
IC90 [27, 36]: 0.0028 µM
IC50 [28]: 0.0034 µM
IC90 [28, 36]: 0.0112 µM
IC50 [29]: 0.0008 µM
IC90 [29, 36]: 0.0016 µM

Cc1ccc(NC(=O)c2ccc(CN3CCN(C)CC3)cc2)cc1Nc1nccc(-c2cccnc2)n1 [IMATINIB]
IC50 [1]: 0.4 µM
IC50 [2]: 3.1 µM
IC50 [3]: 5 µM
IC50 [4]: 2 µM
Activity [30]: inactive
IC50 [5]: > 5 µM
IC50 [6]: 0.5 µM
IC50 [7]: 1 µM
IC50 [8]: 1 µM
IC50 [9]: 4.2 µM
IC50 [10]: > 6.4 µM
IC50 [11]: 5.2 µM
IC50 [12]: 1.05 µM
IC50 [31]: 2.7 µM
IC50 [13]: > 6.4 µM
IC50 [32]: 0.6 µM
IC50 [14]: 1.82 µM
IC50 [15]: 0.88 µM
IC50 [33]: 0.8 µM
IC50 [16]: > 5 µM
IC50 [17]: 1 µM
IC50 [18]: 0.5 µM
IC50 [19]: 1.75 µM
IC50 [20]: > 5 µM
IC50 [21]: 1.35 µM
IC50 [22]: 3.48 µM
IC50 [34]: 2.7 µM
IC50 [23]: > 6.4 µM
IC50 at 72 h [24]: > 6.4 µM
IC50 [25]: 1.5 µM
IC50 [26]: 0.85 µM
IC50 [35]: Not Active
IC50 [27]: 0.48 µM
IC50 [28]: 1.32 µM
IC50 [29]: 1.63 µM
